From ChEMBL document CHEMBL1148538, “Scaffold oriented synthesis. Part 1: Design, preparation, and biological evaluation of thienopyrazoles as kinase inhibitors” (Bioorg Med Chem Lett, 2006)

Tests used:
[1] = target: Mitogen-activated protein kinase kinase kinase 8 (Homo sapiens, UniProt P41279); experiment: Inhibitory activity against COT
[2] = target: RAC-alpha serine/threonine-protein kinase (Homo sapiens, UniProt P31749); experiment: Inhibitory activity against Akt1
[3] = target: Mitogen-activated protein kinase 14 (Homo sapiens, UniProt Q16539); experiment: Inhibitory activity against p38alpha
[4] = target: Cyclin-dependent kinase 2/cyclin A (Homo sapiens, UniProt P24941); experiment: Inhibitory activity against CDK2/Cyclin A; type: protein-complex assay
[5] = target: Serine/threonine-protein kinase PLK1 (Homo sapiens, UniProt P53350); experiment: Inhibitory activity against Plk1
[6] = target: Casein kinase II (Homo sapiens, UniProt P19784+P67870+P68400); experiment: Inhibitory activity against CK2; type: protein-complex assay
[7] = target: Vascular endothelial growth factor receptor 2 (Homo sapiens, UniProt P35968); experiment: Inhibitory activity against KDR
[8] = target: MAP kinase-activated protein kinase 2 (Homo sapiens, UniProt P49137); experiment: Inhibitory activity against MK2
[9] = target: Serine/threonine-protein kinase PAK 4 (Homo sapiens, UniProt O96013); experiment: Inhibitory activity against Pak4

Sequence of MAP kinase-activated protein kinase 2 (P49137 whole entry): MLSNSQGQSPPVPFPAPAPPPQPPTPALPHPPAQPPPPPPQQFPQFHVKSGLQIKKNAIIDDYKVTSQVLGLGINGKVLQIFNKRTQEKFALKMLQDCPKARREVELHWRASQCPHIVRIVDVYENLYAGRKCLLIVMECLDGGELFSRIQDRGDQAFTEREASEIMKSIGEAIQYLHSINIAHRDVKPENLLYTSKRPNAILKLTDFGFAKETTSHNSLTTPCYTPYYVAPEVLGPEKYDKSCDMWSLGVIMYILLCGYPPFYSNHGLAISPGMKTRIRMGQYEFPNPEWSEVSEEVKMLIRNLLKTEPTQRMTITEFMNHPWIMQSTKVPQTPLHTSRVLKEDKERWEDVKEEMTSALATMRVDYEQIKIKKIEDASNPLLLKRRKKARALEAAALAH
Sequence of Mitogen-activated protein kinase 14 (Q16539 whole entry): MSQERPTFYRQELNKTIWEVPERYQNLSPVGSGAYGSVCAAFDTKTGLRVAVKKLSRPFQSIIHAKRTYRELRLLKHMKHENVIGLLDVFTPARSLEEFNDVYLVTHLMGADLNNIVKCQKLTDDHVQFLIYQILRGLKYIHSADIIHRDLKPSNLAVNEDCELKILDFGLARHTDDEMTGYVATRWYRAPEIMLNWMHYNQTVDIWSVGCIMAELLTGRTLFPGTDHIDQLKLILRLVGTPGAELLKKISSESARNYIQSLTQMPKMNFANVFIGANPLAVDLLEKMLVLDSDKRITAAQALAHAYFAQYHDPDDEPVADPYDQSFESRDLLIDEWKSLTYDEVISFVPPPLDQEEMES
Sequence of Vascular endothelial growth factor receptor 2 (P35968 whole entry): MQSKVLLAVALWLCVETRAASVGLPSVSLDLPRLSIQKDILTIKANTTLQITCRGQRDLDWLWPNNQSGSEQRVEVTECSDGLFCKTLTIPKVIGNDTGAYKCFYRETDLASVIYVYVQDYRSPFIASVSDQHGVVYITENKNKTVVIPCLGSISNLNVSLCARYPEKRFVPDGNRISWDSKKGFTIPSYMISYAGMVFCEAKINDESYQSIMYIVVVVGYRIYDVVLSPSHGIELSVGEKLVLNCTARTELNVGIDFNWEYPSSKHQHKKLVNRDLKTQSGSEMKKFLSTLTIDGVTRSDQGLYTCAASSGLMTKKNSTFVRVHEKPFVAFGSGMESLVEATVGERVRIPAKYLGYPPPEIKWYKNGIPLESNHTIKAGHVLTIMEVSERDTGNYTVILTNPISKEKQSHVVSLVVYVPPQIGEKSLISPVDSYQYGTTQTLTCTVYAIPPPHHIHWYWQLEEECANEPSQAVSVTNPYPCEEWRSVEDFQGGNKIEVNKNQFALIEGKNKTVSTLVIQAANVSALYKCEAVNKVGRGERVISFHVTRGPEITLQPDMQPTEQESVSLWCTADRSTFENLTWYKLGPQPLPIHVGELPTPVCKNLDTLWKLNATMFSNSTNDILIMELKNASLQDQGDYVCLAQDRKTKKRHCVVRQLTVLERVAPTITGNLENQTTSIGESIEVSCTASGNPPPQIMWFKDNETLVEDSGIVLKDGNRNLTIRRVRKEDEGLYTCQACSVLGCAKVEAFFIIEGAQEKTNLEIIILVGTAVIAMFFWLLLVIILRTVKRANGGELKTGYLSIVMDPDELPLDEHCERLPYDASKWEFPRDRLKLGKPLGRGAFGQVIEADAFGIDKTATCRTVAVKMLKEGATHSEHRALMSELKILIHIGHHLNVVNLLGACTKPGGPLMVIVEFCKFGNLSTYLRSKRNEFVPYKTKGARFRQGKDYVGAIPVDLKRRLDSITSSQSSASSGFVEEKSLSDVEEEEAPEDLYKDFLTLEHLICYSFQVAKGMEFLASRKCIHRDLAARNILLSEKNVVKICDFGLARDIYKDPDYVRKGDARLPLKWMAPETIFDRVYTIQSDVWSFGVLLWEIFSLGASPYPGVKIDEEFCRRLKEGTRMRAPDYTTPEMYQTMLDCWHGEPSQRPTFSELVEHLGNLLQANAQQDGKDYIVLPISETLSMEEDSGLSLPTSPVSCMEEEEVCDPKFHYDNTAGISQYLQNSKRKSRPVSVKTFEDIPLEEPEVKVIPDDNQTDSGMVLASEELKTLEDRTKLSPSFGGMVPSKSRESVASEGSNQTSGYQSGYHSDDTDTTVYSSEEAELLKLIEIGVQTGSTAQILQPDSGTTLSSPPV
Sequence of Serine/threonine-protein kinase PLK1 (P53350 whole entry): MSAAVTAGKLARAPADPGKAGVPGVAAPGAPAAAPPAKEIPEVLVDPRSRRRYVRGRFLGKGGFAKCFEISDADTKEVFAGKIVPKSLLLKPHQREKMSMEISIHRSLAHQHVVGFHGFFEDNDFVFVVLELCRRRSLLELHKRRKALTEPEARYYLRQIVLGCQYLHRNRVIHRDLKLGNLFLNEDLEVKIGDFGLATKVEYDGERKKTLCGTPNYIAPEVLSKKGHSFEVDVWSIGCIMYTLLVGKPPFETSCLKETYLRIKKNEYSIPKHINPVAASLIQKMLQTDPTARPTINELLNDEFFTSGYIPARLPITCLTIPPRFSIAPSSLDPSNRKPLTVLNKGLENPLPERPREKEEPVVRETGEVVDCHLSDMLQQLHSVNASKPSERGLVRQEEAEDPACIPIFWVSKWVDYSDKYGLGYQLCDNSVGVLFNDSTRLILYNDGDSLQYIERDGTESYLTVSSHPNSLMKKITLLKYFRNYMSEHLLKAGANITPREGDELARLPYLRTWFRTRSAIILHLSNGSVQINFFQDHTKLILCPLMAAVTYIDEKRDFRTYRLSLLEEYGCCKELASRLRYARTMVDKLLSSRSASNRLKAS
Sequence of Mitogen-activated protein kinase kinase kinase 8 (P41279 whole entry): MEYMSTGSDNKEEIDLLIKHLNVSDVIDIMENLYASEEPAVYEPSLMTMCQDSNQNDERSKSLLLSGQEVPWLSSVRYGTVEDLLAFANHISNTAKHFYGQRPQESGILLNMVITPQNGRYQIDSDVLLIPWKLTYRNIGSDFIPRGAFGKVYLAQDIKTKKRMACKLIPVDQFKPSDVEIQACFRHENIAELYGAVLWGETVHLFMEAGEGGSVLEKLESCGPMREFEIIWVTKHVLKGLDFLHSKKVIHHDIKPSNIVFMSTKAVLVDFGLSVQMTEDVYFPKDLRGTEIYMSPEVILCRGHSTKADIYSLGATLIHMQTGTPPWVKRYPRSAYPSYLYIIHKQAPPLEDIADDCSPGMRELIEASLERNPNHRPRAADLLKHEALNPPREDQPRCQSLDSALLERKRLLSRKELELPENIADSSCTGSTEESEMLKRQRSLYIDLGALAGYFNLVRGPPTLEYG
Sequence of Casein kinase II (P67870 whole entry): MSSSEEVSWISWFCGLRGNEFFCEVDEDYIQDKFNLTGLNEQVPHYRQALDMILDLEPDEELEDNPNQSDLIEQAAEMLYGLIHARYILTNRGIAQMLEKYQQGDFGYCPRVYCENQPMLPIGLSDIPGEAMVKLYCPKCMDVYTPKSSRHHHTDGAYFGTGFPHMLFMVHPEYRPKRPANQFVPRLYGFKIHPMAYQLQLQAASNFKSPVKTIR
Sequence of Casein kinase II (P68400 whole entry): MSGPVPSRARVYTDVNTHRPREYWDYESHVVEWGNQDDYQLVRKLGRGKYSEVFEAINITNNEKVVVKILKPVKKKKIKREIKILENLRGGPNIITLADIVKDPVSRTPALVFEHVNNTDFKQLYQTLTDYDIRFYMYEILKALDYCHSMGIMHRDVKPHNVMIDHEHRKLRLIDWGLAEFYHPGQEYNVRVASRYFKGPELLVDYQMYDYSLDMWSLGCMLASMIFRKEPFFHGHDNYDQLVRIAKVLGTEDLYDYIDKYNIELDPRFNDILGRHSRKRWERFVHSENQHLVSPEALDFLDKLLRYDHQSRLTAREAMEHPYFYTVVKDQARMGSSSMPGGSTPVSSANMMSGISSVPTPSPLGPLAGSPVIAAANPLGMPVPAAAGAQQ
Sequence of Casein kinase II (P19784 whole entry): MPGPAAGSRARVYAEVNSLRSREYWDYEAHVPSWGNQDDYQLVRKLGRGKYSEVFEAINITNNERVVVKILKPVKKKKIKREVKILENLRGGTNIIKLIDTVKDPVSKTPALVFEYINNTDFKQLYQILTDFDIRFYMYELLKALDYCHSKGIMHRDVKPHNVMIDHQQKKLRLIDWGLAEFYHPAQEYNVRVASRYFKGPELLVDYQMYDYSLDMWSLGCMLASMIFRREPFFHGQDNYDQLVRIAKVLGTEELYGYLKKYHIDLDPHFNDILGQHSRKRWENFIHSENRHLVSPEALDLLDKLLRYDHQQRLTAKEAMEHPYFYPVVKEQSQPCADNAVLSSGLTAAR
Sequence of RAC-alpha serine/threonine-protein kinase (P31749 whole entry): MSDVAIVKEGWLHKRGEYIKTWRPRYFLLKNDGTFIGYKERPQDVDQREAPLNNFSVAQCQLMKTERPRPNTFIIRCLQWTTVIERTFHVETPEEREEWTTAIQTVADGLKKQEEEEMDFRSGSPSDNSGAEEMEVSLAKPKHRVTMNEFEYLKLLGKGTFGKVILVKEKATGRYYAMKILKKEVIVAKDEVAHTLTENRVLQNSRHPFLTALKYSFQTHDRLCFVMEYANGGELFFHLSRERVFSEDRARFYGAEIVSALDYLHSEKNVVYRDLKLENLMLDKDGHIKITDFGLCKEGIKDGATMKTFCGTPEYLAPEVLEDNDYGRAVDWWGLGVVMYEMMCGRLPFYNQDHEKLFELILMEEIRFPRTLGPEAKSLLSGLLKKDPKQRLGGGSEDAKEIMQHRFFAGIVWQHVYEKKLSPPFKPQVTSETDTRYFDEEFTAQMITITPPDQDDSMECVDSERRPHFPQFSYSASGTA

Structure (SMILES) | IC50 [1] [µM] | IC50 [2] [µM] | IC50 [3] [µM] | IC50 [4] [µM] | IC50 [5] [µM] | IC50 [6] [µM] | IC50 [7] [µM] | IC50 [8] [µM] | IC50 [9] [µM]
O=C(NCCc1ccccc1)c1cc2c(-c3ccccc3)n[nH]c2s1 | > 20 | > 20 | > 20 | > 20 | 17 | > 20 | 2 | > 20 | > 20
Cc1n[nH]c2sc(C(N)=O)cc12 | > 20 | > 20 | – | – | > 20 | 4 | 17 | > 20 | > 20
O=C(NC1CCCCC1)c1cc2c(-c3ccccc3)n[nH]c2s1 | > 20 | > 20 | > 20 | 11 | 12 | > 20 | 0.49 | > 20 | > 20
Cc1n[nH]c2sc(C(=O)NC3CCCCC3)cc12 | > 20 | > 20 | – | – | > 20 | > 20 | > 20 | > 20 | > 20
COC(=O)c1cc2c(CN3CCCCC3)n[nH]c2s1 | – | > 100 | – | – | > 100 | > 100 | > 100 | – | > 100
O=C(NCc1ccccc1)c1cc2c(-c3ccccc3)n[nH]c2s1 | > 20 | 15 | – | – | – | 2 | 0.5 | 17 | > 20
COC(=O)c1cc2c(C)n[nH]c2s1 | – | > 100 | – | – | > 100 | 38 | 23 | – | > 100
CCCCN(C)C(=O)c1cc2c(C)n[nH]c2s1 | > 20 | > 20 | – | – | > 20 | 24 | > 20 | > 20 | > 20
CN1CCN(C(=O)c2cc3c(-c4ccccc4)n[nH]c3s2)CC1 | > 20 | > 20 | > 20 | > 20 | > 20 | > 20 | 4 | > 20 | > 20
CCCCNC(=O)c1cc2c(C)n[nH]c2s1 | > 20 | > 20 | – | – | > 20 | 21 | 16 | > 20 | > 20

Now from value to compound:

IC50 [1] [µM] | IC50 [2] [µM] | IC50 [3] [µM] | IC50 [4] [µM] | IC50 [5] [µM] | IC50 [6] [µM] | IC50 [7] [µM] | IC50 [8] [µM] | IC50 [9] [µM] | Structure (SMILES)
> 20 | > 20 | > 20 | > 20 | > 20 | > 20 | 0.51 | 16 | > 20 | COc1ccc(CNC(=O)c2cc3c(-c4ccccc4)n[nH]c3s2)cc1
> 20 | > 20 | > 20 | > 20 | > 20 | 5 | 0.35 | > 20 | > 20 | CCCCN(C)C(=O)c1cc2c(-c3ccccc3)n[nH]c2s1
– | > 100 | – | – | > 100 | > 100 | > 100 | – | > 100 | Cc1n[nH]c2sc(C(N)=O)c(NC(=O)c3cccc(Cl)c3)c12
– | > 100 | – | – | > 100 | > 100 | > 100 | – | > 100 | Cc1[nH]nc2sc(C(N)=O)c(NC(=O)c3ccc(Cl)cc3)c12
– | > 20 | – | – | > 20 | 9 | 19 | – | > 20 | CC(=O)Nc1c(C(N)=O)sc2n[nH]c(C)c12
– | > 100 | – | – | > 100 | 6 | 11 | – | > 100 | Cc1n[nH]c2sc(C(N)=O)c(NC(=O)COc3ccccc3)c12
– | 9 | – | – | > 20 | 11 | 20 | – | 13 | Cc1[nH]nc2sc(C(N)=O)c(NC(=O)Nc3ccccc3)c12
– | 16 | – | – | 21 | 5 | > 100 | – | 37 | COC(=O)c1cc2c(Nc3ccccc3)[nH]nc2s1
– | > 100 | – | – | 8 | 3 | 17 | – | > 100 | COC(=O)C(=O)Nc1c(C(N)=O)sc2[nH]nc(C)c12
– | > 100 | – | – | 23 | 9 | 8 | – | > 100 | Cc1[nH]nc2sc(C(N)=O)c(NC(=O)c3ccccc3Cl)c12
> 20 | > 20 | – | – | 16 | 19 | 12 | > 20 | > 20 | Cc1n[nH]c2sc(C(=O)NCc3ccccc3)cc12
– | 17 | – | – | > 100 | > 100 | 6 | – | > 100 | Cc1n[nH]c2sc(C(N)=O)c(NC(=O)c3cccs3)c12
